Assay results as given in ChEMBL document CHEMBL5096183, “Contemporary advances of cyclic molecules proposed for inflammation” (Eur J Med Chem, 2021).
≈ marks a conversion by molar mass, not a printed value. One block for each compound: values may come before it.

Experiments:
[1] = Acute toxicity in PO dosed Wistar albino rat measured for 14 days; assay type: organism-based; settings: in vivo, time 14 day
[2] = target: T1, Seed linoleate 13S-lipoxygenase-1 (Glycine max, UniProt P08170); test: Inhibition of soybean LOX-1 using linoleic acid as substrate measured for 3 mins
T1 sequence (P08170 whole entry): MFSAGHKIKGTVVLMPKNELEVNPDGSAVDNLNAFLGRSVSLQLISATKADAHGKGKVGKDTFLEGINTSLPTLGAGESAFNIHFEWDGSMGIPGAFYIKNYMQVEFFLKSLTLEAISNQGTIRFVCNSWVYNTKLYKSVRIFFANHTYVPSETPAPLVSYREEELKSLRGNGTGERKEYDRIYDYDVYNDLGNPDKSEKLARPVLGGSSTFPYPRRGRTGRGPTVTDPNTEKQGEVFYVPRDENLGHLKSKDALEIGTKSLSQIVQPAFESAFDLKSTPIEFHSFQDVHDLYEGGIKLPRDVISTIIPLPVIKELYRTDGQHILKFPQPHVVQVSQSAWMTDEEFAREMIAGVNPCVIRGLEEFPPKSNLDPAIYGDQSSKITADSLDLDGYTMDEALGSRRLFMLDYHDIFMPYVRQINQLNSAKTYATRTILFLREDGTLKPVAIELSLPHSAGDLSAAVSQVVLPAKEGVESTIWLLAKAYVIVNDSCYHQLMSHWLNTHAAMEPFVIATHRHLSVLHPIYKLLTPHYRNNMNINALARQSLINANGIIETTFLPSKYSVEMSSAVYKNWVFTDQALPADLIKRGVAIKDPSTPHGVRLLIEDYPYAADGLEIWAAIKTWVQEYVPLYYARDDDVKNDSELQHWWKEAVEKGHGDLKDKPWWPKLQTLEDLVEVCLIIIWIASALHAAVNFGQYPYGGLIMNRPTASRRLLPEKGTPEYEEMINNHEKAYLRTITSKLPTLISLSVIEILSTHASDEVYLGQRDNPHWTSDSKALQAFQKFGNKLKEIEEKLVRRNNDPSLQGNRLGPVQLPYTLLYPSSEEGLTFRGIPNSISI

[3] = Antioxidant activity assessed as DPPH radical scavenging activity incubated for 20 mins by UV spectrometric analysis; assay type: functional
[4] = target: T2, Seed linoleate 13S-lipoxygenase-1 (Glycine max) (UniProt P08170); test: Binding affinity to soybean LOX-1 assessed as quenching ability by fluorescence based assay relative to control
T2 sequence (whole entry): T1 sequence (P08170 whole entry)

[5] = target: T3, Prostaglandin G/H synthase 1 (Ovis aries, UniProt P05979); test: Inhibition of ovine COX-1 preincubated for 10 mins followed by arachidonic acid addition for 2 mins
T3 sequence (P05979 whole entry): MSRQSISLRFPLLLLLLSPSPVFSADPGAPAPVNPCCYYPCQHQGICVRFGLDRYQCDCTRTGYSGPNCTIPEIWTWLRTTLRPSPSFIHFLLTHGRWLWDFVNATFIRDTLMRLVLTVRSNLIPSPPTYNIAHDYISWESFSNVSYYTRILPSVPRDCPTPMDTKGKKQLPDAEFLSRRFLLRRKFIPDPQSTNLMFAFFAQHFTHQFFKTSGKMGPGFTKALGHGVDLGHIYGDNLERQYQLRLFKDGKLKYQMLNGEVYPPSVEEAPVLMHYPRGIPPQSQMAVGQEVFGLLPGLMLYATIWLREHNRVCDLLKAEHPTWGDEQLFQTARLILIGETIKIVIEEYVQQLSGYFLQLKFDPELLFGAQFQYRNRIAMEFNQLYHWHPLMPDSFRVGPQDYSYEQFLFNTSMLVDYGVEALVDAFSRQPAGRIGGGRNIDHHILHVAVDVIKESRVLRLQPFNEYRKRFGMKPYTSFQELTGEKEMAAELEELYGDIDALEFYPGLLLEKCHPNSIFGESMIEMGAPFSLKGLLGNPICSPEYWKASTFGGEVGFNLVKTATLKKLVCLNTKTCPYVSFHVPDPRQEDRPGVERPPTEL

[6] = target: Epidermal growth factor receptor (Homo sapiens, UniProt P00533); test: Inhibition of recombinant EGFR (unknown origin) expressed in baculovirus incubated for 10 mins by europium-labeled antiphosphotyrosine/enhancement solution based assay
[7] = Inhibition of mouse full-length GST-tagged BRAF V600E mutant incubated for 1 hrs
Rattus norvegicus [8] = test: Anti-inflammatory activity against carrageenan-induced paw edema in rat
Rattus norvegicus [9] = test: Anti-inflammatory activity against carrageenan-induced paw edema in rat relative to control; assay type: functional
Rattus norvegicus [10] = test: Anti-inflammatory activity against carrageenan-induced paw edema in PO dosed Wistar albino rat measured after 2 hrs; assay type: functional
Mus musculus [11] = test: Anti-inflammatory activity against Carrageenan-induced paw edema in Swiss albino mouse assessed as change in paw volume at 10 mg/kg, PO measured for 3 to 6 hrs by plethysmometric analysis relative to control; assay type: functional; settings: time 3-6 hrs
RAW264.7 [12] = test: Anti-inflammatory against LPS induced mouse RAW 264.7 cells assessed as inhibition of IL-6 measured for 24 hrs by ELISA analysis; assay type: functional, cell-based; settings: RAW264.7, 24 h
RAW264.7 [13] = test: Anti-inflammatory against LPS induced mouse RAW 264.7 cells assessed as inhibition of NO measured for 24 hrs by ELISA analysis; assay type: functional, cell-based; settings: RAW264.7, 24 h
RAW264.7 [14] = test: Anti-inflammatory against LPS induced mouse RAW 264.7 cells assessed as inhibition of IL-1beta measured for 24 hrs by ELISA analysis; assay type: functional, cell-based; settings: RAW264.7, 24 h
Rattus norvegicus [15] = test: Anti-inflammatory activity against Carrageenan-induced paw edema in Wistar rat at 5 mg/kg, po pretreated for 30 mins followed by carrageenan addition after 4 hrs by Plethysmometric analysis relative to control; assay type: functional; settings: time 4.5 hrs
[16] = Inhibition of soy 15-LOX enzyme immunoassay; design: species or system Glycine max
Rattus norvegicus [17] = test: Anti-inflammatory activity against carrageenan-induced paw edema in PO dosed Wistar albino rat assessed as edema inhibition percentage measured for 2 hrs relative to control; assay type: functional
[18] = target: T4, Prostaglandin G/H synthase 2 (Homo sapiens, UniProt P35354); test: Inhibition of human recombinant COX-2
T4 sequence (P35354 whole entry): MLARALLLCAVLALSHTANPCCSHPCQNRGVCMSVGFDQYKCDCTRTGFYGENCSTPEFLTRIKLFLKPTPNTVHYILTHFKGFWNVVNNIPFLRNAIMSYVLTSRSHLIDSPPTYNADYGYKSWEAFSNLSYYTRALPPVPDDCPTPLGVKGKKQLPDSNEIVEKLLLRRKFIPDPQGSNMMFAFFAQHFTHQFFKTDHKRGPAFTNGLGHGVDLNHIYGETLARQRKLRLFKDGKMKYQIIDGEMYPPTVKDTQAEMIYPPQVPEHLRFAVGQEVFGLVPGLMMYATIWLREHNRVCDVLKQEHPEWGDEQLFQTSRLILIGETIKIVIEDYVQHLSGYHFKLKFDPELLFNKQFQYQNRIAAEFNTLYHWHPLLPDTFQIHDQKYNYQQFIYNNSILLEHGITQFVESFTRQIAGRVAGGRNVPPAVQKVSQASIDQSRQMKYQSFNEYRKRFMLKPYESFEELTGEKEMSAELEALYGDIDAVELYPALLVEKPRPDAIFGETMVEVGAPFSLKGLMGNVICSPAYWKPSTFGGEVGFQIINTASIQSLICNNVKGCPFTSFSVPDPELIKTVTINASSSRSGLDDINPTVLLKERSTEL

Rattus norvegicus [19] = test: Anti-inflammatory activity against formalin-induced foot paw edema in Wistar rat assessed as oedema inhibition at 10 mg/kg,po measured for 1 to 3 hrs by plethysmometric analysis relative to control; assay type: functional; settings: time 1-3 hrs
Mus musculus [20] = test: Analgesic activity in hot plate induced thermal pain Swiss albino mouse model assessed as change in latency at 10 mg/kg, po measured at 1 to 2 hrs relative to control; assay type: functional; settings: time 1-2 hrs
Rattus norvegicus [21] = test: Anti-inflammatory activity against carrageenan-induced paw edema in Albino rat assessed as percentage of protection at 50 mg/kg,po pretreated for 1 hrs followed by carrageenan addition measured after 4 hrs by plethysmography method relative to control; assay type: functional; settings: time 5 hrs

Chain of Epidermal growth factor receptor (P00533 whole entry): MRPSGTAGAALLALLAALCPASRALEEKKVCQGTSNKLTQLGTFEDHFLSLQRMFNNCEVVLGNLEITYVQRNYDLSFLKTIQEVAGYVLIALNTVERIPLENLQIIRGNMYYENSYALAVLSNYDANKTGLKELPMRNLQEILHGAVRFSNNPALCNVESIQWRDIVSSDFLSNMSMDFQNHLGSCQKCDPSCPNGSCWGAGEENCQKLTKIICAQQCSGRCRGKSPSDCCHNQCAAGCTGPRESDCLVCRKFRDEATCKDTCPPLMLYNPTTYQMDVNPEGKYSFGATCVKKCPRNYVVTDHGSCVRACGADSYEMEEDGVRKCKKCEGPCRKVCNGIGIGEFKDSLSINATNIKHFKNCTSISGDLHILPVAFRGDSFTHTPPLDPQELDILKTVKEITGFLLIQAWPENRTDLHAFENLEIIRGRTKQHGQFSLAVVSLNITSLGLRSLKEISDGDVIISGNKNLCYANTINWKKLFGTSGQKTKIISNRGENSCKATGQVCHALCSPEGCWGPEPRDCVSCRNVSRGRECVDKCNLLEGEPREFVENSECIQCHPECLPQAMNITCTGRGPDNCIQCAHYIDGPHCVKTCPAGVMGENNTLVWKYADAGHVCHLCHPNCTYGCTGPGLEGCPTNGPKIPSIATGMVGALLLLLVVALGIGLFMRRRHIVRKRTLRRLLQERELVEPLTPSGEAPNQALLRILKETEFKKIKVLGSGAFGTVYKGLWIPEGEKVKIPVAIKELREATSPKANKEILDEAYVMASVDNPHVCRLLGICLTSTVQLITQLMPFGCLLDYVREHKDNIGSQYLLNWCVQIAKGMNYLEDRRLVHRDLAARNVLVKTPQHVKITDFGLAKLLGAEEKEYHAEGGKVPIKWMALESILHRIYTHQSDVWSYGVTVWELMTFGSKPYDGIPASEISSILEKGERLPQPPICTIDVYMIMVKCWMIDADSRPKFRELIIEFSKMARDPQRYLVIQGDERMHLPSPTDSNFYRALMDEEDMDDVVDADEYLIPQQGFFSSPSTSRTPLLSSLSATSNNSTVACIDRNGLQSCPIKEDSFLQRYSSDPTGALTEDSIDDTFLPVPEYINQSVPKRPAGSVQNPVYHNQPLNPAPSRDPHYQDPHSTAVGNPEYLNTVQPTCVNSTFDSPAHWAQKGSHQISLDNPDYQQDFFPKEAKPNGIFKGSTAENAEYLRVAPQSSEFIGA

SMILES: O=C(Cc1cn(-c2ccccc2)nc1O)Nc1ccccc1-c1cc(-c2ccc(Br)cc2)n(-c2ccccc2)n1
LD50 at 336 h [1]: 2000 mg/kg

IC50 [2]: 65.4 µM | IC50 [3]: 360 µg/mL (≈ 1770 µM) | Qmax [4]: 76.3%
SMILES: COCc1nc2ccc3occc3c2o1

IC50 [5]: 20 µM
SMILES: CC1=NN(c2cccc(Cl)c2)C(=O)/C1=C\c1cn(-c2nc(N3CCOCC3)nc(N3CCOCC3)n2)c2ccccc12

IC50 [6]: 0.2 µM | IC50 [7]: 1.7 µM
SMILES: Cc1ccc(/C=N/NC(=O)CNc2nc(-c3ccccc3)c(-c3ccccc3)s2)cc1

SMILES: Cc1ccc(-c2cc(C(F)(F)F)nn2-c2ccc(S(N)(=O)=O)cc2)cc1 [CELECOXIB]
ED50 (Rattus norvegicus [8]): 34.1 mg/kg | Activity (Rattus norvegicus [9]): 83.4% | ED50 (Rattus norvegicus [10]): 32 µmol/kg | Activity (Mus musculus [11]): 32%

IC50 (RAW264.7 [12]): 8.61 µM | IC50 (RAW264.7 [13]): 17.7 µM | IC50 (RAW264.7 [14]): 20.1 µM
SMILES: CN(C)c1cccc2c(S(=O)(=O)Oc3cccc4oc(=O)[nH]c34)cccc12

SMILES: COc1ccc(-c2cc(-c3ccccc3)nn2CC(=O)Nc2ccc(S(N)(=O)=O)cc2)cc1
inhibition in vivo at 5 mg/kg (Rattus norvegicus [15]): 81%

IC50 [16]: 5.64 µM
SMILES: Cc1ccc(Cl)c(Nc2ccccc2C(=O)O)c1Cl [MECLOFENAMATE SODIUM]

SMILES: CC1=NN(c2ccccc2C(=O)O)C(=O)/C1=N/Nc1ccc(S(N)(=O)=O)cc1
inhibition (INH) (Rattus norvegicus [17]): 54.54% | ED50 (Rattus norvegicus [10]): 44 µmol/kg

IC50 [18]: 0.037 µM
SMILES: COc1ccc(/C=C/C(=O)c2cc(-n3cc(CN4C(=O)C(=O)c5ccccc54)nn3)ccc2O)cc1

SMILES: COc1ccc(/C=C/C(=O)c2cccc(N3C(=O)c4ccccc4C3=O)c2)cc1OC
inhibition in vivo at 10 mg/kg (Rattus norvegicus [19]): 45% | inhibition in vivo at 10 mg/kg (Mus musculus [20]): 45.8%

SMILES: CCc1nnc(-c2cc3cc([N+](=O)[O-])ccc3o2)o1
Activity (Rattus norvegicus [21]): 72%
